From patent US20250270180A1, “MEK INHIBITORS AND THERAPEUTIC USES THEREOF” (Immuneering Corporation, priority 2020, published 2025)

Legend:
[1] = test system: A549 (KRAS-G12S) pERK; experiment: Cell-based pERK dose response study, A549; details: Homo sapiens; A549; 12-point dose; 2 hours
Description: Materials and Methods: A549 or A375 cells were seeded in 6-well plates at an appropriate seeding density on day 0. On day 2 or 3, after checking the health and confluency of cells, the media was aspirated and replaced with 1 mL media containing a predetermined concentration of compound and incubated for 2 hours. After 2 hours, the media was aspirated, and the cells washed 2 times with cold PBS. Cells were lysed on ice, with 50 uL 1×CST lysis buffer+1 mM PMSF for 5 minutes. After 5 minutes, cells were removed using a scraper and transferred to cold 1.5 mL tubes, and centrifuged for 10 min, 4° C., 14,000×g. Supernatant was gently removed and snap frozen in liquid nitrogen. Protein concentration of the lysate was determined using Bradford Reagent (analyzed using SpectraMax M2E) and diluted to 1 mg/mL or pERK or 1.5 mg/mL for pMEK analysis. […] All dilutions were in Milk-free antibody diluent.

[2] = test system: A549 pMEK:tMEK (CRAF); experiment: CRAF-bypass pMEK:tMEK, A549; type: cell-based
Description: Materials and Methods: A549 or A375 cells were seeded in 6-well plates at an appropriate seeding density on day 0. On day 2 or 3, after checking the health and confluency of cells, the media was aspirated and replaced with 1 mL media containing a predetermined concentration of compound and incubated for 2 hours. After 2 hours, the media was aspirated, and the cells washed 2 times with cold PBS. Cells were lysed on ice, with 50 uL 1×CST lysis buffer+1 mM PMSF for 5 minutes. After 5 minutes, cells were removed using a scraper and transferred to cold 1.5 mL tubes, and centrifuged for 10 min, 4° C., 14,000×g. Supernatant was gently removed and snap frozen in liquid nitrogen. Protein concentration of the lysate was determined using Bradford Reagent (analyzed using SpectraMax M2E) and diluted to 1 mg/mL or pERK or 1.5 mg/mL for pMEK analysis. Cell lysates were then analyzed for phosphor-ERK/total-ERK levels on a Jess system (ProteinSimple; Cat #JS3346) using the following antibodies: tERK1/2 (CST 4696; 1:50) and pERK1/2 (CST 4377; 1:50). […]
A549 or […] cells were treated in duplicate for two hours with compounds at varying concentrations. […] After storage, the lysate was quantified with the Bradford assay. Before the lysates were prepared to run on the Jess, the lysates were diluted to 1 mg/mL for pERK analysis and 1.5 mg/mL pMEK analysis using quantitative Western blotting. […]

[3] = Mouse liver microsome stability (t1/2, Clint); type: in vitro ADME; details: liver microsomes, pH 7.4, 0.5 mg/ml microsomal protein
Description: (Eppendorf 5804R). […] The disappearance of the parent compound was determined.

[4] = Human liver microsome stability (t1/2, Clint); type: in vitro ADME; details: microsomes, pH 7.4, 0.5 mg/ml microsomal protein
[5] = Kinetic solubility (PBS pH 7.4; 4 hr); type: physicochemical; details: 10 mM PBS buffer, aqueous buffer, kinetic from dmso stock
Description: The plates were shaken for 4 h at room temperature in an Eppendorf Thermomixer. After incubation, the plates were centrifuged for 20 minutes at 4680 rpm. From the supernatant, 150 uL was transferred to a new 96 well plate and 50 uL DMSO was added to ensure continued dissolution. Samples were measured on LC-UV at injection volumes of 1 and 8 uL. Peak areas were determined and compared to peak areas obtained using calibration curves of the test compounds in DMSO.

[6] = eLogD (lipophilicity; pH 7.4); type: physicochemical
Description: Test compounds were dissolved in DMSO at a concentration of 10 mM and further diluted with methanol: water 1:1. Samples were analyzed using gradient HPLC with three different isocratic mobile phases of 0.25% octanol in methanol (60, 65 and 70%) and 20 mM MOPS buffer (pH 7.4) with decylamine. If needed, (for low ElogDoct compounds) the isocratic mobile phases were adjusted to e.g. 40, 45 and 50% methanol. Peaks were detected using a diode array at absorbance 220-320 nm.
Capacity factors data (k′ _=(tr−_t0)/t0) obtained at various amounts of methanol were extrapolated to 0% methanol and k′w values are determined using a linear procedure. ElogDoct (7.4) is calculated using a series of reference standards with known Log D values. Each experiment was performed in triplicate.

[7] = PAMPA (pH 7.4); details: PAMPA
Description: Each stock solution was diluted to 50 uM in pH 7.4 Prisma HT buffer (pION) and 200 ul was added to each well of the donor plate in triplicate. The polyvinylidene fluoride (PVDF, 0.45 μm) filter membrane on the acceptor plate was coated with 5 ul gastrointestinal tract lipid formulation (GIT-0, pION) and to each well of the acceptor plate, 200 μl of acceptor sink buffer (pION) was added. The acceptor filter plate was then carefully placed on top of the donor plate to form a sandwich. The sandwich was incubated at 25° C. for 4 h without stirring. UV-vis spectra of the solutions in the blank, reference, acceptor and donor plates were measured using a microplate reader (Tecan Infinite 200PRO M Nano Plus). Permeability values were calculated using the PAMPA explorer software v. 3.8.0.2 (pION).

[8] = Single dose PK profile (plasma and tumor) in Colon26 tumor bearing mice; type: in vivo; details: female, mouse
Description: Female mice (either athymic BALC/c nude, or BALB/c mice) were inoculated with a single subcutaneous injection of 0.1 ml of mouse Colon-26 cell suspension (1×10^5 cells per animal) in the right flank region. Colon26 (C26) tumor bearing mice received a single dose (3-4 mice/treatment) of vehicle (10% DMSO/90% [20% SBE-B-CD in saline], pH 5) containing compounds at indicated dose by gavage (p.o.) or intravenous administration (i.v.) and at various time points (0.16, 0.5, 1, 2, 4, 8, 12, 16, 24-hour) post dose humanely euthanized. Blood was obtained through cardiac puncture into K+EDTA tubes, mixed by inversion and centrifuged to obtain the plasma. Tissues were excised, cleaned of surrounding tissues. All samples immediately snap frozen in liquid N2 prior to LC-MS/MS analysis (using Agilent Poroshell-120 EC-C18 (4.0 μm) 2.1×50 mm, and a Water+API-4000 Electrospray MS unit). The results of this study are illustrated in FIGS. 16, and 17. Tables 11 describes a single does PK profile (plasma) and Table 12 describes a single dose PK profile (tumor).

[9] = molecular target: CYP450 2D6 (Homo sapiens, UniProt P10635)
[10] = in vitro; details: human, Caco-2
[11] = Inv New Drugs (2018) 36, 1037-1043; cited from earlier work
[12] = athymic BALB/c nude or BALB/c, iv, 25 mg/kg, plasma, 25 mpk i.v.
[13] = athymic BALB/c nude or BALB/c, po, 25 mg/kg, plasma, 25 mpk p.o.
[14] = athymic BALB/c nude or BALB/c, po, 100 mg/kg, plasma, 100 mpk p.o.
[15] = iv, 25 mg/kg, plasma, 25 mpk i.v.
[16] = iv, 25 mg/kg, tumor, 25 mpk i.v.
[17] = po, 25 mg/kg, plasma, 25 mpk p.o.
[18] = po, 25 mg/kg, tumor, 25 mpk p.o.
[19] = po, 100 mg/kg, plasma, 100 mpk p.o.
[20] = po, 100 mg/kg, tumor, 100 mpk p.o.

Sequence of CYP450 2D6 (P10635 whole entry): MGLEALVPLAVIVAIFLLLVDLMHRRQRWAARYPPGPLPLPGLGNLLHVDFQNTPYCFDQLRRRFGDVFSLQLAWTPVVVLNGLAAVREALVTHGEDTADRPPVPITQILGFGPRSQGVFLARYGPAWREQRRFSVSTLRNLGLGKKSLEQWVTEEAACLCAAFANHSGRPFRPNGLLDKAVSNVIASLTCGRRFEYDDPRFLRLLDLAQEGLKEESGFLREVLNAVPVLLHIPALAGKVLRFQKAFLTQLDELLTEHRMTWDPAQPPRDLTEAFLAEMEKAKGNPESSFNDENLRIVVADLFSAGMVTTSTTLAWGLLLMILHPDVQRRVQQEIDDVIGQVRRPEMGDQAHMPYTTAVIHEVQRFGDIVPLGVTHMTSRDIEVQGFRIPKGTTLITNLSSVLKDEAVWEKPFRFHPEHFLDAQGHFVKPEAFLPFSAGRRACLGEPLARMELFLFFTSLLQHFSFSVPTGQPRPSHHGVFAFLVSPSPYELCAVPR

SMILES: CNS(=O)(=O)Nc1cccc(Cc2c(CN3CCC3)c3ccc(OC(=O)N(C)C)cc3oc2=O)c1F [Compound 197]
- IC50 [1]: 4.3 nM
- CRAF A549 pMEK:tMEK [100 nM; 2 hr] [2]: 0.49
- half-life at 1 uM [3]: 53 min
- microsomal CLint at 1 uM [3]: 26 µL/min/mg
- half-life at 1 uM [4]: 38 min
- solubility kinetic at 4 h [5]: > 80 µM
- chromatographic logD [6]: 2.9
- Papp at 4 h, 50 uM [7]: 51 ×10⁻⁶ cm/s
- Tmax [8, 12]: 9.6 min
- half-life [8, 12]: 143 min
- bioavailability [8, 13]: 47%
- half-life [8, 13]: 73.8 min
- bioavailability [8, 14]: 100%
- half-life [8, 14]: 82.8 min
- AUC(0-inf) [8, 15]: 7740 ng·h/mL
- AUC(0-t) [8, 15]: 7730 ng·h/mL
- Cmax [8, 15]: 10900 ng/mL
- AUC(0-inf) [8, 16]: 8360 ng·h/mL
- AUC(0-t) [8, 16]: 8320 ng·h/mL
- Cmax [8, 16]: 6750 ng/mL
- Tmax [8, 16]: 30 min
- AUC(0-inf) [8, 17]: 3650 ng·h/mL
- AUC(0-t) [8, 17]: 3640 ng·h/mL
- Cmax [8, 17]: 2320 ng/mL
- Tmax [8, 17]: 30 min
- AUC(0-t) [8, 18]: 3460 ng·h/mL
- Cmax [8, 18]: 1920 ng/mL
- Tmax [8, 18]: 60 min
- bioavailability [8, 18]: 42%
- AUC(0-inf) [8, 19]: 31100 ng·h/mL
- AUC(0-t) [8, 19]: 31100 ng·h/mL
- Cmax [8, 19]: 14200 ng/mL
- Tmax [8, 19]: 9.6 min
- AUC(0-inf) [8, 20]: 37100 ng·h/mL
- AUC(0-t) [8, 20]: 36900 ng·h/mL
- Cmax [8, 20]: 12600 ng/mL
- Tmax [8, 20]: 60 min
- bioavailability [8, 20]: 111%

SMILES: C=C[C@H]1C[N@@]2CC[C@H]1C[C@@H]2[C@@H](O)c1ccnc2ccc(OC)cc12 [Quinidine]
- 2D6* [9]: 99.7

SMILES: CC(=O)CC(c1ccccc1)c1c(O)c2ccccc2oc1=O (centres unmarked) [Warfarin]
- Papp A→B at 2 h, 10 μM [10]: > 1 ×10⁻⁶ cm/s

SMILES: Cn1cnc2c(F)c(Nc3ccc(Br)cc3F)c(C(=O)NOCCO)cc21 [binimetinib]
- muscle gain in patients with BTC [11]: promote muscle gain
